# Earlier results as cited in US20110053172A1, “ONE STEP NANOSENSOR FOR SINGLE AND MULTIDRUG RESISTANCE IN ACUTE CORONARY SYNDROME (ACS)” (UNIVERSITY OF CALCUTTA, priority 2009, published 2011).
# Details: in comparison to aspirin; P=0.043
smiles,measurement,value
COC(=O)[C@H](c1ccccc1Cl)N1CCc2sccc2C1 [clopidogrel],"relative risk reduction in stroke, myocardial infarction, or ischaemic death",8.7%
